pIC50: −log10 of the molar value.
Experiments:
[1] = target: Beta-2 adrenergic receptor (Cavia porcellus, UniProt Q8K4Z4); assay: Beta-2 adrenergic receptor antagonistic activity on guinea pig tracheal chains; format: functional; conditions: read-out: pA2 (converted)
[2] = target: Beta-1 adrenergic receptor (Cavia porcellus, UniProt B0FL73); assay: Compound was tested for its Beta-1 adrenergic receptor antagonistic activity on guinea pig atria; format: functional; conditions: read-out: pA2 (converted)
Chain of Beta-1 adrenergic receptor (B0FL73 whole entry): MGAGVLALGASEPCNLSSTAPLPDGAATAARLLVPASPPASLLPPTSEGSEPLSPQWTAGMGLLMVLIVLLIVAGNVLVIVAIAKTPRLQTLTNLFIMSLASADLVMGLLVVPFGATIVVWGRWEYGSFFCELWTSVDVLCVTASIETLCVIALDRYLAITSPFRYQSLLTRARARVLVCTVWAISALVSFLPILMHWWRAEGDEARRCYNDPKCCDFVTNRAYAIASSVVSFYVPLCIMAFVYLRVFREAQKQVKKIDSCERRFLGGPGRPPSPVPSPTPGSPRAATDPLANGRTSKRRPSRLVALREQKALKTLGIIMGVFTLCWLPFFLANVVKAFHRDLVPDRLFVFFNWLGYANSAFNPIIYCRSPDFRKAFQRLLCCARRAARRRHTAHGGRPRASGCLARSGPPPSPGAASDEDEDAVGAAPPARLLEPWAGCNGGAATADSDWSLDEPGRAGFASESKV

[3] = target: Beta-2 adrenergic receptor (Bos taurus, UniProt Q28044); assay: Compound was tested for inhibition of [3H]dihydroalprenolol radioligand binding to Beta-2 adrenergic receptor in calf lung membranes.; format: cell membranes
Chain of Beta-2 adrenergic receptor (Bos taurus, UniProt Q28044) (Q28044 whole entry): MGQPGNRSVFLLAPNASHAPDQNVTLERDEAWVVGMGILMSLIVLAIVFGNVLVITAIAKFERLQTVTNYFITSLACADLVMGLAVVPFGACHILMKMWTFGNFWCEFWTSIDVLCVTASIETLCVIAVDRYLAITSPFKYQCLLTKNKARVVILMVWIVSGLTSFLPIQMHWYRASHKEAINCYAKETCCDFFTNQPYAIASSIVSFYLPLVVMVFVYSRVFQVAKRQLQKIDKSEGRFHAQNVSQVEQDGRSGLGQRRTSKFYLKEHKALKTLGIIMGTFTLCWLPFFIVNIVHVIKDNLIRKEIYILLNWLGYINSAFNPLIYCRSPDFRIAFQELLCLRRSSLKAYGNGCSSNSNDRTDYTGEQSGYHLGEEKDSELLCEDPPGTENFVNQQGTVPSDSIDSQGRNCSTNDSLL

Chain of Beta-2 adrenergic receptor (Cavia porcellus, UniProt Q8K4Z4) (Q8K4Z4 whole entry): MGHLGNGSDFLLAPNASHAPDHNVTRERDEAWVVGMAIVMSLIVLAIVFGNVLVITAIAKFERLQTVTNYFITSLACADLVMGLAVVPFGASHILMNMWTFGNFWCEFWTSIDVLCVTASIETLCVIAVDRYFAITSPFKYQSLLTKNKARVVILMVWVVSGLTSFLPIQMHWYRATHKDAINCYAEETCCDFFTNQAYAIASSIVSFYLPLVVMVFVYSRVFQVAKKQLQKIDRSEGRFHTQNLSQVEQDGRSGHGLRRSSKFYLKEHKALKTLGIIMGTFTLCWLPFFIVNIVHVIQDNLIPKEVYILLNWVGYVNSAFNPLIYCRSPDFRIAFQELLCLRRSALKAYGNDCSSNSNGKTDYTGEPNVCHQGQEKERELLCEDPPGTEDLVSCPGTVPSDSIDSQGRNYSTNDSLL

| Compound | Kb [1] | Kb [2] | pIC50 [3] |
| --- | --- | --- | --- |
| CCC(C)(C)NCC(O)CON=C1c2ccccc2-c2ccccc21 (stereo unspecified) | 85.1 nM | 34.7 nM | – |
| CC(C)(C)NC[C@@H](O)CON=C1c2ccccc2-c2ccccc21 | 18.2 nM | 13.2 nM | 7.70 |
| CCC(C)(C)NC[C@H](O)CON=C1c2ccccc2-c2ccccc21 | 74.1 nM | 16.6 nM | – |
| Cc1ccc(OCC(O)CNC(C)C)c2c1CCC2 (stereo unspecified) | 31.6 nM | 97.7 nM | 7.75 |
| CC(C)(C)NC[C@H](O)CON=C1c2ccccc2-c2ccccc21 | 17 nM | 37.2 nM | 7.51 |
| CC(C)(C)NCC(O)CON=C1c2ccccc2-c2ccccc21 (stereo unspecified) | 66.1 nM | 33.9 nM | 7.61 |
